Reference: ChEMBL document CHEMBL1155559, “Hepatoprotective diastereomeric lignans from Saururus chinensis herbs” (J Nat Prod, 2000)

System: Hepatocyte
Assay: Hepatoprotective activity in Wistar rat CCL4-damaged hepatocyte assessed as blockade of glutamic pyruvic transaminase release at 100 uM relative to control
Type: functional, cell-based

C[C@@H]1[C@H]2c3cc4c(cc3O[C@@]35OCOC3=CC(=O)[C@@H](C[C@H]1C)[C@@H]25)OCO4
Activity: 75.9%

C[C@@H]1[C@H]2c3cc4c(cc3O[C@@]35OCOC3=CC(=O)[C@H](C[C@H]1C)[C@H]25)OCO4 [SAUCHINONE A]
Activity: 78.2%

C[C@@H]1[C@H]2c3cc4c(cc3O[C@@]35OCOC3=CC(=O)[C@H](C[C@H]1C)[C@@H]25)OCO4 [SAUCHINONE]
Activity: 70.1%

COc1cc(C2Oc3cc([C@H]4Oc5cc(O)cc(O)c5C(=O)[C@@H]4O)ccc3OC2CO)ccc1O (some centres undefined) [SILIBININ]
Activity: 76.6%
